System: LG0567-F671-PDC multi-cell spheroid viability
Experiment: Anticancer human tumor LG0567-F671-PDC patient-derived lung adenocarcinoma cell line growth inhibition [IpAb]
Settings: for IC50: curve of first compound; for viability, T/C: stronger effect = lower value
Summary of the method: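 Multi-cell spheroids of 60% tumour cells, 25% HUVEC and 15% MSC in ultra-low-attachment U-bottom wells, treated with agents combined with ipatasertib or abemaciclib. Half-log ranges top out near clinical Cmax, or 10 microM when Cmax is unknown.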

[1] = second compound 0.01 µM, first compound 0.00949 µM
[2] = second compound 0.01 µM, first compound 0.03 µM
[3] = second compound 0.01 µM, first compound 0.0949 µM
[4] = second compound 0.01 µM, first compound 0.3 µM
[5] = second compound 0.0316 µM, first compound 0.00949 µM
[6] = second compound 0.0316 µM, first compound 0.03 µM
[7] = second compound 0.0316 µM, first compound 0.0949 µM
[8] = second compound 0.0316 µM, first compound 0.3 µM
[9] = second compound 0.1 µM, first compound 0.00949 µM
[10] = second compound 0.1 µM, first compound 0.03 µM
[11] = second compound 0.1 µM, first compound 0.0949 µM
[12] = second compound 0.1 µM, first compound 0.3 µM
[13] = second compound 0.316 µM, first compound 0.00949 µM
[14] = second compound 0.316 µM, first compound 0.03 µM
[15] = second compound 0.316 µM, first compound 0.0949 µM
[16] = second compound 0.316 µM, first compound 0.3 µM
[17] = second compound 1 µM, first compound 0.00949 µM
[18] = second compound 1 µM, first compound 0.03 µM
[19] = second compound 1 µM, first compound 0.0949 µM
[20] = second compound 1 µM, first compound 0.3 µM
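Also: viability read after 7 days of drug exposure.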
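For viability, T/C in this document: 100% = DMSO vehicle control luminescence.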

Structure (SMILES) | IC50 (second compound 0.01 µM) [nM] | IC50 (second compound 0.0316 µM) [nM] | IC50 (second compound 0.1 µM) [nM] | IC50 (second compound 0.316 µM) [nM] | IC50 (second compound 1 µM) [nM] | viability, T/C [1] [%] | viability, T/C [2] [%] | viability, T/C [3] [%] | viability, T/C [4] [%] | viability, T/C [5] [%] | viability, T/C [6] [%] | viability, T/C [7] [%] | viability, T/C [8] [%] | viability, T/C [9] [%] | viability, T/C [10] [%] | viability, T/C [11] [%] | viability, T/C [12] [%] | viability, T/C [13] [%] | viability, T/C [14] [%] | viability, T/C [15] [%] | also measured
CC(=O)c1c(C)c2cnc(Nc3ccc(N4CCNCC4)cn3)nc2n(C2CCCC2)c1=O + CCN1CCN(Cc2ccc(Nc3ncc(F)c(-c4cc(F)c5nc(C)n(C(C)C)c5c4)n3)nc2)CC1 | > 300 | > 300 | > 300 | > 300 | > 300 | 87.8 | 62.5 | 82.8 | 69.2 | 94.1 | 75.2 | 55.4 | 57.4 | 62.6 | 80.2 | 60.3 | 51.2 | 67.1 | 49.4 | 56.8 | viability, T/C (second compound 0.01 µM, first compound 0.000949 µM): 74.8%; viability, T/C (second compound 0.01 µM, first compound 0.003 µM): 93.4%; viability, T/C (second compound 0.0316 µM, first compound 0.000949 µM): 83%; viability, T/C (second compound 0.0316 µM, first compound 0.003 µM): 65.1%; viability, T/C (second compound 0.1 µM, first compound 0.000949 µM): 84.4%; viability, T/C (second compound 0.1 µM, first compound 0.003 µM): 71.2%; viability, T/C (second compound 0.316 µM, first compound 0.000949 µM): 60.7%; viability, T/C (second compound 0.316 µM, first compound 0.003 µM): 51.7%; viability, T/C [16]: 50.7%; viability, T/C (second compound 1 µM, first compound 0.000949 µM): 53.4%; viability, T/C (second compound 1 µM, first compound 0.003 µM): 76.6%; viability, T/C [17]: 69%; viability, T/C [18]: 65.5%; viability, T/C [19]: 63.7%; viability, T/C [20]: 54.2%
CC(C)(C)c1cnc(CSc2cnc(NC(=O)C3CCNCC3)s2)o1 + CCN1CCN(Cc2ccc(Nc3ncc(F)c(-c4cc(F)c5nc(C)n(C(C)C)c5c4)n3)nc2)CC1 | 152 | 129 | 106 | 74.2 | 52.5 | 108 | 118 | 82.8 | 3.32 | 86.5 | 92.3 | 66.8 | 4.66 | 62.2 | 81.8 | 55.4 | 2.56 | 56 | 73.7 | 45.9 | viability, T/C (second compound 0.01 µM, first compound 0.949 µM): 1.33%; viability, T/C (second compound 0.01 µM, first compound 3 µM): 0.84%; viability, T/C (second compound 0.0316 µM, first compound 0.949 µM): 1.42%; viability, T/C (second compound 0.0316 µM, first compound 3 µM): 0.84%; viability, T/C (second compound 0.1 µM, first compound 0.949 µM): 1.28%; viability, T/C (second compound 0.1 µM, first compound 3 µM): 0.81%; viability, T/C [16]: 3.08%; viability, T/C (second compound 0.316 µM, first compound 0.949 µM): 1.56%; viability, T/C (second compound 0.316 µM, first compound 3 µM): 1.05%; viability, T/C [17]: 58.5%; viability, T/C [18]: 66%; viability, T/C [19]: 37%; viability, T/C [20]: 4.69%; viability, T/C (second compound 1 µM, first compound 0.949 µM): 2.05%; viability, T/C (second compound 1 µM, first compound 3 µM): 1.1%

Source: PubChem BioAssay AID2060332 (Molecular Pharmacology Branch, DTP, NCI, 2025)
